Experimental data taken from article PMC9822155, “Synthesis and Antiproliferative Activity against Cancer Cells of Indole-Aryl-Amide Derivatives” (Molecules, 2022).

Tests used:
[1] = system: HT29 (human colorectal adenocarcinoma) cells; experiment: MTT viability assay, HT29; format: cell-based
Excerpt: (§1) To investigate whether the compounds have an antitumor activity, we performed in vitro viability assays against a panel of cancer cell lines: HT29 (human colorectal adenocarcinoma), HeLa (human cervical carcinoma), IGROV-1 (human ovarian carcinoma), MCF7 (human breast cancer), PC-3 (human prostate adenocarcinoma), and Jurkat J6 (human […]). The I407 (human embryonic intestinal) and 3T3 (mouse embryonic fibroblast) cells were used as controls. The growth inhibitory concentration was determined by incubating the cells with increasing concentrations (0.01–500 μM) of the compounds for 24 h. Data obtained from cell growth assays were elaborated to assess the concentration of cell viability (IC50) and selectivity indices (SI), and the results are shown in Table 2 and Table 3, respectively.
(§2) HT29 human colorectal adenocarcinoma cells, HeLa human cervix adenocarcinoma cells, MCF7 human breast adenocarcinoma cells, PC-3 human prostate adenocarcinoma cells, J6 Jurkat Clone E6-1 acute T cell leukemia, the healthy I407 human intestine cells, and mouse embryonic fibroblast 3T3 fibroblasts as controls cell lines were purchased from American Type Culture Collection (ATCC, Manassas, VA). The human ovarian cancer cell line IGROV1 has been kindly provided by Prof. Colnaghi (Istituto Nazionale Tumori (IRCCS) (Milano, Italy). Cells were cultured in RPMI 1640 medium (Labtek Eurobio, Milan, Italy), supplemented with 10% FCS (Euroclone, Milano, Italy) and 2 mM L-glutamine (Sigma-Aldrich, Milano, Italy), at 37 °C, and a 5% CO2 atmosphere. The compounds were dissolved in DMSO in a 30–40 mM stock solution. In cell treatments, the final DMSO concentration never exceeded 0.1%.
(§3) Cells were seeded at 1.5 × 10^4 cells/well in a 96-well culture plastic plate (Sarsted, Milan, Italy), and after 24 h of growth were exposed to increasing concentrations of each distinct compound (from 0.010 μM to 500 μM) solubilized in RPMI 1640 medium. MTT assay was performed according to the literature. In brief, after 24 h of treatment, the culture medium was replaced with 0.1 mL of 3-(4,5-dimethylthiazolyl-2)-2,5-diphenyltetrazolium bromide (MTT, Sigma-Aldrich, Milano, Italy) dissolved in PBS at the concentration of 0.2 mg/mL, and samples were incubated for 2 h at 37 °C. The absorbance at 570 nm was measured using a multiwell plate reader (Tecan, Männemorf, Switzerland), and data were analyzed by Prism GraphPad software, and expressed as IC50 μM.

δ-OR = molecular target: T1, δ-OR (Homo sapiens, UniProt P41143); experiment: Radioligand binding assay, δ-OR ([3H]deltorphin-2 displacement); conditions: [3H]deltorphin-2, membranes of CHO cells with human recombinant OR; ± SEM (n ≥ 3)
T1 construct: purchased PerkinElmer (Krakow, Poland); host or cells: CHO cells (membranes)
T1 sequence (P41143 whole entry): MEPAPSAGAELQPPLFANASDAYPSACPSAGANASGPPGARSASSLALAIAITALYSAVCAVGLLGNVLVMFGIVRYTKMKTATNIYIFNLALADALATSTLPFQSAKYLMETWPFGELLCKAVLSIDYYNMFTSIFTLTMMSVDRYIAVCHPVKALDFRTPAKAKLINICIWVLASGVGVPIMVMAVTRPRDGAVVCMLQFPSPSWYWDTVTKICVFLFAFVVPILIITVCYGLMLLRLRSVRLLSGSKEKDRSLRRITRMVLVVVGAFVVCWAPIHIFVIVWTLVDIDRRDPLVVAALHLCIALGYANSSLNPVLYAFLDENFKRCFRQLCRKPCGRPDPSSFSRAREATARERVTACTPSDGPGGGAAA
Protocol: In order to evaluate the affinity of the compounds for μ-, δ-, κ-ORs, radioligand binding assays were performed. Displacement of radioligands, [^3H]DAMGO (μ-OR selective), [^3H]deltorphin-2 (δ-OR selective), and [^3H]U-69593 (κ-OR selective) by the synthetic analogs was investigated in the commercial membranes of CHO cells transfected with human recombinant ORs. […] Due to the modest receptor affinities, the functional activity of the compounds was not investigated.
Opioid radioligands, [^3H]DAMGO, [^3H]deltorphin-2 and [^3H]U-69593, and human recombinant opioid receptors came from PerkinElmer (Krakow, Poland). GF/B glass fiber strips were purchased from Whatman (Brentford, UK).
To determine the affinity of peptide analogs at the respective receptors, competition binding experiments were performed. Commercial membranes of CHO cells stably expressing human opioid receptors and the competing radioligands, [^3H]DAMGO, [^3H]deltorphin-2, and [^3H]U-69593 for μ-OR, δ-OR, and κ-OR, respectively, were used. Membranes were incubated in 0.5 mL volume of 50 mM Tris/HCl (pH = 7.4), 0.5% bovine serum albumin (BSA), with a number of peptidase inhibitors (bacitracin, bestatin, captopril) and various concentrations of radioligands for 2 h at 25 °C. Non-specific binding was assessed in the presence of […]. Three independent experiments for each assay were carried out in duplicate. The data were analyzed by a nonlinear least square regression analysis computer program Graph Pad PRISM 6.0 (Graph Pad Software Inc., San Diego, CA, USA). The IC50 values were determined from the logarithmic concentration-displacement curves, and the values of the inhibitory constants (Ki) were calculated according to the equation of Cheng and Prusoff.

HT29 cells = experiment: Cell cycle analysis by flow cytometry (PI staining); format: cell-based, human; conditions: HT29, 5 μM, 24 h
Protocol: HT29 cells were treated with 1 or 5 μM 5 for 24 h and analyzed by flow cytometry after DNA staining. […] In contrast, 5-treated HT29 cells accumulated in the G0/G1 phase in a dose-dependent manner, with a nearly complete synchronization (84% ± 0.9) after 5 μM treatment.
HT29 were plated at density of 20,000 cell/cm^2 in dish and after 24 h treated with 1 or 5 μM of 5 for 24 h. The samples were prepared in according to Calonghi. In brief, untreated and treated cells were detached, washed in PBS and the pellet was finally re-suspended in 0.01% Nonidet P-40 (Sigma-Aldrich, Milano, Italy), 10 μg/mL RNase (Sigma-Aldrich, Milano, Italy), 0.1% sodium citrate (Sigma-Aldrich, Milano, Italy), 50 μg/mL propidium iodide (PI) (Sigma-Aldrich, Milano, Italy), for 30 min at room temperature in the dark. Propidium iodide (PI) fluorescence was acquired on a linear scale and analysed by Modfit software version 5.2 (USA). Flow cytometric assays were performed on a Brite HS flow cytometer (Bio-Rad, Watford, UK) equipped with a Xe/Hg lamp.

[2] = system: HeLa (human cervical carcinoma) cells; experiment: MTT viability assay, HeLa; format: cell-based; conditions: Homo sapiens; MTT, 24 h
Excerpt: as §1, §2, §3

For `Nc1ccc(CN(Cc2ccc(O)cc2)C(=O)Cc2c[nH]c3ccccc23)cc1` [Compound 5], the “Selectivity Index IC503T3/ IC50HT29” value ([1]; 3T3 normal cells as reference) was 12.26, the IC50 ([1]; Homo sapiens, HT-29, MTT, 24 h) was 2.61 ± 0.05 µM and the Ki (δ-OR) was 10.8 ± 1.3 µM. For the same compound, the “Cells in G0/G1 phase” value (HT29 cells) was 84% ± 0.9 and the IC50 [2] was over 500 µM.
